# Assay results: the supplement of paper PMC10307832
# Experiments:
# Experiment in all cases: relative viability (nuclei count vs DMSO), 5 days (fraction); higher = more cells survive
# CUDC-101 + Lapatinib = compound: C#Cc1cccc(Nc2ncnc3cc(OC)c(OCCCCCCC(=O)NO)cc23)c1 [CUDC-101] + CS(=O)(=O)CCNCc1ccc(-c2ccc3ncnc(Nc4ccc(OCc5cccc(F)c5)c(Cl)c4)c3c2)o1 [Lapatinib] (partner 2 µM)
# In short: (§1)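 Lung cancer cell lines, seeded in 1536-well plates, were treated the following day by pin tool with a single drug or with five library-drug doses (not always all listed) in √10 steps on top of a fixed anchor-drug dose. Cells were fixed and nuclei stained in one step after 5 days, and nuclei were counted. Relative viability is the nuclei count for treated wells divided by that for vehicle wells, reported as medians of duplicate plates.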
# CUDC-101 + Olaparib = compound: C#Cc1cccc(Nc2ncnc3cc(OC)c(OCCCCCCC(=O)NO)cc23)c1 [CUDC-101] + O=C(c1cc(Cc2n[nH]c(=O)c3ccccc23)ccc1F)N1CCN(C(=O)C2CC2)CC1 [Olaparib] (partner 8 µM)
# In short: as §1
# NVP-TAE684 + Bortezomib = compound: COc1cc(N2CCC(N3CCN(C)CC3)CC2)ccc1Nc1ncc(Cl)c(Nc2ccccc2S(=O)(=O)C(C)C)n1 [NVP-TAE684] + CC(C)C[C@H](NC(=O)[C@H](Cc1ccccc1)NC(=O)c1cnccn1)B(O)O [Bortezomib] (partner 0.002 µM)
# In short: as §1
# NVP-TAE684 + Navitoclax = compound: COc1cc(N2CCC(N3CCN(C)CC3)CC2)ccc1Nc1ncc(Cl)c(Nc2ccccc2S(=O)(=O)C(C)C)n1 [NVP-TAE684] + CC1(C)CCC(c2ccc(Cl)cc2)=C(CN2CCN(c3ccc(C(=O)NS(=O)(=O)c4ccc(N[C@H](CCN5CCOCC5)CSc5ccccc5)c(S(=O)(=O)C(F)(F)F)c4)cc3)CC2)C1 [Navitoclax] (partner 0.5 µM)
# In short: as §1
# NVP-TAE684 + Vorinostat = compound: COc1cc(N2CCC(N3CCN(C)CC3)CC2)ccc1Nc1ncc(Cl)c(Nc2ccccc2S(=O)(=O)C(C)C)n1 [NVP-TAE684] + O=C(CCCCCCC(=O)Nc1ccccc1)NO [Vorinostat] (partner 1 µM)
# In short: as §1
Cell Line,relative viability (CUDC-101 + Lapatinib; first compound 0.01 µM),relative viability (CUDC-101 + Lapatinib; first compound 0.03162 µM),relative viability (CUDC-101 + Lapatinib; first compound 0.1 µM),relative viability (CUDC-101 + Lapatinib; first compound 0.3162 µM),relative viability (CUDC-101 + Lapatinib; first compound 1 µM),relative viability (CUDC-101 + Olaparib; first compound 0.01 µM),relative viability (CUDC-101 + Olaparib; first compound 0.03162 µM),relative viability (CUDC-101 + Olaparib; first compound 0.1 µM),relative viability (CUDC-101 + Olaparib; first compound 0.3162 µM),relative viability (CUDC-101 + Olaparib; first compound 1 µM),relative viability (NVP-TAE684 + Bortezomib; first compound 0.6325 µM),relative viability (NVP-TAE684 + Bortezomib; first compound 2 µM),relative viability (NVP-TAE684 + Navitoclax; first compound 0.2 µM),relative viability (NVP-TAE684 + Navitoclax; first compound 0.6325 µM),relative viability (NVP-TAE684 + Navitoclax; first compound 2 µM),relative viability (NVP-TAE684 + Vorinostat; first compound 0.2 µM),relative viability (NVP-TAE684 + Vorinostat; first compound 0.6325 µM),relative viability (NVP-TAE684 + Vorinostat; first compound 2 µM),relative viability (NVP-TAE684 + Bortezomib; first compound 0.2 µM)
HCC-827,0.206,0.181,0.178,0.174,0.218,0.718,0.302,0.157,0.221,0.123,0.988,1.05,0.935,0.982,0.978,0.754,0.762,0.793,
HOP-62,1.03,0.909,1.05,0.768,0.821,0.31,0.465,0.359,0.29,0.477,0.725,0.758,1.23,1.13,1.1,0.566,0.57,0.553,0.678
IA-LM,0.999,0.666,0.605,0.653,0.305,0.768,0.871,0.74,0.86,0.46,0.563,0.583,0.762,0.641,0.687,0.66,0.897,0.7,0.679
LC-2-ad,0.984,1.02,1.06,0.863,0.198,0.719,0.69,0.698,0.699,0.608,0.9,0.605,0.394,0.264,0.12,0.725,0.665,0.251,1.13
LCLC-97TM1,0.905,0.766,1.13,1.01,0.807,0.452,0.4,0.368,0.446,0.437,0.216,0.194,0.321,0.495,0.13,0.548,0.589,0.157,0.711
LOU-NH91,0.843,0.772,0.764,0.825,0.641,0.906,0.779,0.76,0.754,0.624,0.492,0.518,0.644,0.607,0.463,0.817,0.8,0.628,0.548
LU99A,1.2,0.889,0.987,0.861,0.321,0.259,0.24,0.233,0.192,0.105,1.1,0.653,0.802,0.769,0.362,0.51,0.465,0.357,1.29
LXF-289,0.895,0.915,0.97,0.915,0.694,1.01,1.14,1.06,1.08,0.599,1.03,1.02,0.966,0.966,0.803,0.671,0.676,0.723,1.06
